For 30 molecules, IC50 and EC50 results are on record in patent US9783545B2, “Pyrazolopyridazines and methods for treating retinal-degenerative diseases and hearing loss associated with usher syndrome” (Usher III Initiative, Inc., priority 2012, dated 2017).

pEC50: −log10 of the molar value.

The target in one test is T1, N48K Clarin-1 (Homo sapiens, UniProt P58418, N48K).
T1 construct: expressed in transfected cells
T1 sequence (P58418 1-232 N48K): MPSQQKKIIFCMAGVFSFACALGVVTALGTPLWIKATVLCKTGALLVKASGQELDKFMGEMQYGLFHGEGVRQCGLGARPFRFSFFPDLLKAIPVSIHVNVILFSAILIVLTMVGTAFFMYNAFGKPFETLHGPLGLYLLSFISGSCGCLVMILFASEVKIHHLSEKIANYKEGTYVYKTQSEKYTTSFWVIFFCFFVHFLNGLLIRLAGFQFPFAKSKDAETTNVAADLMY
As to the kind of experiment: Restoration of expression of N48K Clarin-1, 24 hour incubation (high content imaging of HA-tagged N48K Clarin-1). The test is classed as cell-based. Also on record: IC50: scale not given here. Particulars: HEK293-Clarin-1 N48K-HA D9 cell line, 24 hr incubation with compound. How it is done: Assay Method Showing Activity of Compounds of the Invention that Restore Expression of N48K Clarin-1 (24 hour incubation)
Clarin-1 is the protein encoded by the gene mutated in Usher III Syndrome (Adato et al., 2002). The most prevalent mutation in Clarin-1 in North America is N48K, which is reported to cause loss of glycosylation and a trafficking defect (Tian et al., 2009). […] Thus it is believed that restoring the trafficking of N48K Clarin-1 to the cell surface provides an avenue of intervention for Usher III Sydrome.
In a typical experiment, these cells were seeded on collagen-coated 96-well plates at a cell density of 20,000 cells per well in Dulbecco's Modified Eagle Medium (DMEM) contain 10% fetal bovine serum in a humidified incubator at 37° C., 5% CO2. After an overnight incubation, compounds were added for a 24 hr incubation in DMEM medium contain 10% fetal bovine serum in a humidified incubator at 37° C., 5% CO2. As a negative control, DMSO was used at 0.25% final concentrations. Compounds were typically tested in triplicate fashion. After the 24 hr incubation with compounds, the cells were fixed by the addition of 10% buffered formalin to the wells to achieve a final concentration of 4% formalin. After a 20 min fixation at room temperature, wells were washed three times with phosphate-buffered saline (PBS) containing Triton X-100 (0.02 phosphate, 150 mM NaCl, 0.1% Triton X-100).
The HA-tagged N48K Clarin-1 was detected with an antibody against the HA tag (HA.11 Clone 16B12 Monoclonal antibody, Covance #MMS-101P) at a dilution of 1:1000 in PBS containing Triton X-100. After a 90 min incubation, wells were washed three times with PBS containing Triton X-100, and a secondary antibody (Goat anti-mouse IgG-Cy3 (1.5 mg/ml), Jackson IR Europe #115165003) was added to the wells at a dilution of 1:250 in PBS containing Triton X-100 for 45 min. Wells were subsequently washed three times with PBS containing Triton X-100, and a final staining for nuclei was performed by the addition of DAPI (4′,6-diamidino-2-phenylindole) at a dilution of 1:10,000. The imaging of the stained cells was performed on an InCell 1000 High Content Imager (GE Healthcare), reading out the Cy3 channel for N48K Clarin-1 and the DAPI channel for nuclei. The images were analyzed and quantitated using a specific algorithm. This algorithm measured the HA-Clarin-1 staining for each cell based on the additional nuclear segmentation of the DAPI signal (FIG. 1). This algorithm measured the intensity per cell, and thus it is less sensitive for variation in cell number. Per well, approximately 2,000 cells were measured to achieve an average density per cell measurement. FIG. 1 illustrates high content analysis. DAPI-stained nuclei are used to perform segmentation of the image into individual cells. The density observed in the N48K Clarin-1 channel (Cy3) is then calculated per cell averaged over a field.
Regarding `OCCn1nc(C2CC2)c2c(Cl)c(-c3ccccc3)nnc21` [Iff, 2-(4-chloro-3-cyclopropyl-5-phenyl-pyrazolo[3,4-c]pyridazin-1-yl)ethanol], the IC50 result is reported as “A, B”.

Still in this test, the particulars now being: HEK293-Clarin-1 N48K-HA D9 cell line, 24 hr incubation with compound; read-out: IC50 (the source's name).
For `Cc1nn(C)c2nnc(-c3cccc(F)c3)c(Cl)c12` [Compound 25, 4-chloro-5-(3-fluorophenyl)-1,3-dimethyl-pyrazolo[3,4-c]pyridazine], the pEC50 is ≥ 5.70.

In the case of `Clc1c(-c2ccccc2)nnc2c1c(-c1ccccc1)nn2C1CCOCC1` [IIe, 4-chloro-3,5-diphenyl-1-tetrahydropyran-4-yl-pyrazolo[3,4-c]pyridazine], the pEC50 is ≥ 5.70.

As to `CN1CCN(CCn2nc3nnc(-c4ccccc4)c(Cl)c3c2I)CC1` [Compound 20, 4-Chloro-3-iodo-2-(2-(4-methylpiperazin-1-yl)ethyl)-5-phenyl-2H-pyrazolo[3,4-c]pyridazine], the pEC50 is 4.68 to 5.30. In the case of `O=C(Cn1nc(C(F)(F)F)c2c(Cl)c(-c3ccccc3)nnc21)N1CCCC1` [Iaa, 2-[4-chloro-5-phenyl-3-(trifluoromethyl)pyrazolo[3,4-c]pyridazin-1-yl]-1-pyrrolidin-1-yl-ethanone], the pEC50 is 5.30 to 5.70.

Regarding `Cc1nn(CCN2CCN(C)CC2)c2nnc(-c3ccccc3)c(Cl)c12` [Iv, 4-chloro-3-methyl-1-[2-(4-methylpiperazin-1-yl)ethyl]-5-phenyl-pyrazolo[3,4-c]pyridazine], the pEC50 is ≥ 5.70. In the case of `FC(F)(F)CCn1nc(-c2ccccc2)c2c(Cl)c(-c3ccccc3)nnc21` [IId, 4-chloro-3,5-diphenyl-1-(3,3,3-trifluoropropyl)pyrazolo[3,4-c]pyridazine], the pEC50 was ≥ 5.70. The same measure, in the same setting: then `Cc1nn(C)c2nnc(-c3ccccc3)c(F)c12` [Compound 24, 4-fluoro-1,3-dimethyl-5-phenyl-pyrazolo[3,4-c]pyridazine], with ≥ 5.70. For the molecule `Cn1nc(-c2cccnc2)c2c(Cl)c(-c3ccccc3)nnc21` [Compound 26, 4-chloro-1-methyl-5-phenyl-3-(3-pyridyl)pyrazolo[3,4-c]pyridazine], the pEC50 is ≥ 5.70. Same read-out and setting: for `O=C(Cn1nc(C2CC2)c2c(Cl)c(-c3ccccc3)nnc21)N1CCCC1` [Iee, 2-(4-chloro-3-cyclopropyl-5-phenyl-pyrazolo[3,4-c]pyridazin-1-yl)-1-pyrrolidin-1-yl-ethanone] the value was 5.30 to 5.70. The same measure, in the same setting: for `Cn1nc(-c2ccccc2)c2c(Cl)c(-c3ccsc3)nnc21` [IIIc, 4-chloro-1-methyl-3-phenyl-5-(3-thienyl)pyrazolo[3,4-c]pyridazine] the value was ≥ 5.70; for `CN1CCN(CCn2nc(-c3cccc(C(=O)N4CCCC4)c3)c3c(Cl)c(-c4ccccc4)nnc32)CC1` [Id, (3-(4-chloro-1-(2-(4-methylpiperazin-1-yl)ethyl)-5-phenyl-1H-pyrazolo[3,4-c]pyridazin-3-yl)phenyl)(pyrrolidin-1-yl)methanone], ≥ 5.70; for `CN(C)CCNC(=O)Cn1nc(-c2cccnc2)c2c(Cl)c(-c3ccccc3)nnc21` [Igg, 2-[4-chloro-5-phenyl-3-(3-pyridyl)pyrazolo[3,4-c]pyridazin-1-yl]-N-(2-dimethylaminoethyl)acetamide], 5.30 to 5.70. As for `Cc1nn(CC(=O)N2CCCC2)c2nnc(-c3ccccc3)c(Cl)c12` [Iw, 2-(4-chloro-3-methyl-5-phenyl-pyrazolo[3,4-c]pyridazin-1-yl)-1-pyrrolidin-1-yl-ethanone], the pEC50 is 5.30 to 5.70. For `Clc1c(-c2ccccc2)nnc2[nH]nc(Br)c12` [Ibb, 3-bromo-4-chloro-5-phenyl-1H-pyrazolo[3,4-c]pyridazine], the pEC50 is 5.30 to 5.70. Same read-out and setting: then `Clc1c(-c2ccccc2)nnc2[nH]nc(C3CC3)c12` [Idd, 4-chloro-3-cyclopropyl-5-phenyl-1H-pyrazolo[3,4-c]pyridazine], with ≥ 5.70. The same measure, in the same setting: then `CN1CCN(CCn2nc(I)c3c(Cl)c(-c4ccccc4)nnc32)CC1` [Ia, 4-Chloro-3-iodo-1-(2-(4-methylpiperazin-1-yl)ethyl)-5-phenyl-1H-pyrazolo[3,4-c]pyridazine], with ≥ 5.70.

On to `CN1CCN(CCn2nc(-c3cc4ccccc4[nH]3)c3c(Cl)c(-c4ccccc4)nnc32)CC1` [Im, 4-chloro-3-(1H-indol-2-yl)-1-(2-(4-methylpiperazin-1-yl)ethyl)-5-phenyl-1H-pyrazolo[3,4-c]pyridazine], for which the pEC50 is ≥ 5.70. Regarding `Clc1c(-c2ccccc2)nnc2c1c(-c1ccccc1)nn2Cc1ccncc1` [IIo, 4-chloro-3,5-diphenyl-1-(4-pyridylmethyl)pyrazolo[3,4-c]pyridazine], the pEC50 was ≥ 5.70. Same read-out and setting: for `Cn1nc(-c2ccccc2)c2c(Cl)c(-c3cccnc3)nnc21` [IIId, 4-chloro-1-methyl-3-phenyl-5-(3-pyridyl)pyrazolo[3,4-c]pyridazine] the value was ≥ 5.70; for `O=C1CCCN1CCn1nc(-c2cccc(F)c2)c2c(Cl)c(-c3ccccc3)nnc21` [IIr, 1-[2-[4-chloro-3-(3-fluorophenyl)-5-phenyl-pyrazolo[3,4-c]pyridazin-1-yl]ethyl]pyrrolidin-2-one], ≥ 5.70; for `O=C(Cn1nc(C2=CCCC2)c2c(Cl)c(-c3ccccc3)nnc21)N1CCCC1` [In, 2-(4-chloro-3-(cyclopent-1-en-1-yl)-5-phenyl-1H-pyrazolo[3,4-c]pyridazin-1-yl)-1-(pyrrolidin-1-yl)ethanone], ≥ 5.70. Same read-out and setting: then `Cc1nn(CCO)c2nnc(-c3ccccc3)c(Cl)c12` [Ihh, 2-(4-chloro-3-methyl-5-phenyl-pyrazolo[3,4-c]pyridazin-1-yl)ethanol], with ≥ 5.70; and `Clc1c(-c2ccccc2)nnc2c1c(-c1ccccc1)nn2Cc1ccccn1` [IIp, 4-chloro-3,5-diphenyl-1-(2-pyridylmethyl)pyrazolo[3,4-c]pyridazine], with ≥ 5.70; and `CN1CCN(CCn2nc(C3=CCOCC3)c3c(Cl)c(-c4ccccc4)nnc32)CC1` [If, 4-chloro-3-(3,6-dihydro-2H-pyran-4-yl)-1-(2-(4-methylpiperazin-1-yl)ethyl)-5-phenyl-1H-pyrazolo[3,4-c]pyridazine], with ≥ 5.70. Regarding `Cc1n[nH]c2nnc(-c3ccccc3)c(Cl)c12` [Iu, 4-chloro-3-methyl-5-phenyl-1H-pyrazolo[3,4-c]pyridazine], the pEC50 was 5.30 to 5.70. In the case of `Cn1nc(C2CCCC2)c2c(Cl)c(-c3ccccc3)nnc21` [Compound 27, 4-chloro-3-cyclopentyl-1-methyl-5-phenyl-pyrazolo[3,4-c]pyridazine], the pEC50 was 5.30 to 5.70. On to `CN1CCN(CCn2nc(-c3cc4ccccc4o3)c3c(Cl)c(-c4ccccc4)nnc32)CC1` [Ij, 3-(benzofuran-2-yl)-4-chloro-1-(2-(4-methylpiperazin-1-yl)ethyl)-5-phenyl-1H-pyrazolo[3,4-c]pyridazine], for which the pEC50 is ≥ 5.70.

Take `FC(F)(F)Cn1nc(-c2ccccc2)c2c(Cl)c(-c3ccccc3)nnc21` [IIk, 4-chloro-3,5-diphenyl-1(2,2,2-trifluoroethyl)pyrazolo[3,4-c]pyridazine]: the pEC50 was ≥ 5.70. The same measure, in the same setting: then `CN1CCN(CCn2nc(/C=C/c3ccccc3)c3c(Cl)c(-c4ccccc4)nnc32)CC1` [Ig, (E)-4-chloro-1-(2-(4-methylpiperazin-1-yl)ethyl)-5-phenyl-3-styryl-1H-pyrazolo[3,4-c]pyridazine], with ≥ 5.70.
